# Assay results reported in patent US6500825B2, “Substituted 2-aminoacetamides and the use thereof” (Euro-Celtique S.A., priority 1997, dated 2002).
# Columns and labels:
# [1] = test system: maximal electroshock-induced seizures (MES); assay: Maximal electroshock-induced seizures (MES) iv in mouse; type: in vivo; details: administered iv 10 min before the test, tonic hindlimb extensor response
# Experimental: The ability of selected 2-methylpropanamide derivatives to block maximal electroshock-induced seizures (MES) was determined by the following procedure. Seizures were induced by application of current (50 mA, 60 pulses/sec, 0.8 msec pulse width, 1 sec duration, D.C.) using a Ugo Basile ECT device (model 7801). Mice were restrained by gripping the loose skin on their dorsal surface and saline-coated corneal electrodes were held lightly against the two cornea. […] A tonic seizure was defined as a hindlimb extension in excess of 90 degrees from plane of the body. The 2-methylpropanamides tested were administered iv to mice 10 min before the test procedure.
# [2] = test system: voltage-sensitive Na+ channels; assay: Electrophysiological assay: patch-clamp recordings of voltage-sensitive Na+ currents in acutely dissociated rat hippocampal neurons; type: cell-based
# Experimental: Electrophysiological Assay
# Cell preparation: Acute cultures of rat hippocamnpal neurons were prepared daily using a modification of procedures described previously (Kuo and Bean, Mol. Pharm. 46:716-725 (1994)). Briefly, hippocampi were isolated from 3-11 day old rat pup brains (Sprague-Dawley; Charles River) and were sectioned, by hand, into 0.5-1 mm thick transyerse slices (Whittemore and Koerner, Eur. J. Pharm. 192:435-438 (1991)). Slices were incubated for at least 30 min at room temperature (20-24° C.) in an oxygenated medium (124 mM NaCl, 3.3 mM KCl, 2.4 mM MgSO4, 2.5 mM CaCl2, 1.2 mM KH2PO4, 26 mM NaHCO3, pH=7.4) continuously bubbled with 5% CO2/95% O2. Prior to recording, 4-5 slices were transferred to an oxygenated dissociation medium (82 mM NaSO4, 30 mM K2SO4, 3 mM MgCl2, 2 mM HEPES, 26 mM NaHCO3, 0.001% phenol red, pH=7.4) containing 3 mg/mL protease XXIII (Sigma, St. Louis, Mo.) and incubated for 10-15 min at 37° C., while continuously bubbling with 5% CO2/95% O2. Enzymatic digestion was terminated by transferring the slices to dissociation medium without bicarbonate, supplemented with 1 mg/mL bovine serum albumin and 1 mg/mL trypsin inhibitor (Sigma, St. Louis, Mo.). Slices were then transferred to a 35 mm culture dish containing dissociation medium without bicarbonate, and triturized with a fire-polished glass Pasteur pipette to release single cells. […]
# Patch-clamp recordings of voltage-sensitive Na^+ currents: Whole-cell voltage-clamp recordings were made using conventional patch-clamp technique (Hamill et al., Pfluegers Arch. 391:85-100 (1981)) with an Axopatch 200A amplifier (Axon Instruments, Foster City, Calif.). […] Currents were recorded at room temperature (22-25° C.), filtered at 5 kHz with 4-pole Bessel filter, digitized at 20-50-μs intervals, and stored using Digidata 1200 analog/digital interface with Pclamp6/Clampex software (Axon Instruments). […] The inhibitory potency of drugs was assessed by measuring reductions in the peak amplitude of […] currents induced by increasing concentrations of compounds tested. […]
Compound,melting point [°C],"Kd ([2]; inactivated Na+ channels, acutely dissociated rat hippocampal neurons, read-out: apparent antagonist dissociation constant (Kd) for inactivated Na+ channels) [nM]",iv MES activity (number protected/number screened) [1],inhibition of voltage-gated Na+ currents ([2]; acutely dissociated rat hippocampal neurons),"effect on Na+ currents activated from a holding membrane voltage of −100 mV ([2]; concentrations between 0.1-10 μM, holding voltage −100 mV)"
"CC(C)(NCc1ccc(Oc2ccc3c(c2)OCO3)cc1)C(N)=O [3,4-methylenedioxyphenoxy, 2-(4-(3,4-Methylenedioxyphenoxy)benzylamino)-2-methyl-propanamide]",,,8/8,,
"CC(C)(NCc1ccc(Oc2ccc3c(c2)CCC3)cc1)C(N)=O [Example 5-indanoxy, 2-(4-(5-Indanoxy)benzylamino)-2-methylpropanamide]",81 to 83,,1/8,,
"CC(C)(NCc1ccc(Oc2ccc(F)cc2F)cc1)C(N)=O [2,4-difluorophenoxy, 2-(4-(2,4-Difluorophenoxy)benzylamino)-2-methylpropanamide]",,,8/8,,

# Continued, in another order:
melting point [°C],"Kd ([2]; inactivated Na+ channels, acutely dissociated rat hippocampal neurons, read-out: apparent antagonist dissociation constant (Kd) for inactivated Na+ channels) [nM]",Compound,iv MES activity (number protected/number screened) [1],inhibition of voltage-gated Na+ currents ([2]; acutely dissociated rat hippocampal neurons),"effect on Na+ currents activated from a holding membrane voltage of −100 mV ([2]; concentrations between 0.1-10 μM, holding voltage −100 mV)"
,~1200,CC(C)(NCc1ccc(OCc2ccccc2F)cc1)C(N)=O [2-(4-(2-Fluorobenzyloxy)benzylamino)-2-methyl-propanamide],,dose-dependent inhibition,very little effect
103 to 106,,"CC(C)(NCc1ccc(Oc2ccc(F)cc2)cc1)C(N)=O [4-fluorophenoxy, 2-(4-(4-Fluorophenoxy)benzylamino)-2-methylpropanamide]",8/8,,
